From US9464082B2, “Aryl and arylalkyl substituted pyrazolyl and pyrimidinyl tricyclic enones as antioxidant inflammation modulators” (AbbVie Inc., priority 2014, dated 2016)

System: IFNγ-Induced NO Production
Experiment: Nitric Oxide Suppression Assay (Suppression of IFNγ-Induced NO Production)
Type: cell-based
Conditions: RAW264.7; RAW 264.7 mouse macrophage cells; 2 hour pre-treatment with compound (3 μM to 0.3 nM, 10 point curve); 20 ng/mL interferon gamma, ~18 hour; Griess detection; n=2-3 in duplicates
Method in brief: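 Mouse RAW 264.7 macrophages pre-treated 2 h at 37 °C with compound (3 μM to 0.3 nM, 10 points; DMSO ≤1%), then stimulated with 20 ng/mL interferon gamma for ~18 h. Supernatant nitrite measured by Griess reaction, absorbance 520–550 nm. IC50 from curve fit of signal normalised to IFNγ alone, mean n=2-3 in duplicate.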

C[C@@H]1C(=O)C(C#N)=C[C@]2(c3ccccc3)c3c(c(-c4cncnc4)nn3C)CC[C@@H]12 [Example 179, (5aS,6S,9aR)-1,6-dimethyl-7-oxo-9a-phenyl-3-(pyrimidin-5-yl)-4,5,5a,6,7,9a-hexahydro-1H-benzo[g]indazole-8-carbonitrile]
IC50: 1.24 nM
